Tests used:
5-HT2A receptor = target: T1, 5-HT2A receptor (Homo sapiens, UniProt P28223); assay: Gq activation via Gq/γ1 dissociation BRET, 5-HT2A; format: cell-based; conditions: hallucinogenic or non-hallucinogenic plastogenic effect predicted from level of 5-HT2A agonist efficacy
T1 construct: expressed in transfected cells; host or cells: HEK293T
From the text: (§1) To measure 5-HT2 receptor-mediated Gq activation via Gq/y1 dissociation as measured by Bioluminescence Resonance Energy Transfer (BRET) (McCorvy J D, Wacker D, Wang S, Agegnehu B, Liu J, Lansu K, Tribo A R, Olsen R H J, Che T, Jin J, Roth B L. Structural determinants of 5-HT2B receptor activation and biased agonism. Nat Struct Mol Biol. 2018; 25(9): 787-96), HEK293T cells were sub-cultured in Dulbecco's Modified Eagle Medium (DMEM) supplemented with 10% dialyzed fetal bovine serum (FBS) and were co-transfected in a 1:1:1:1 ratio with Rluc8-fused human Gaq (Gaq-Rluc8), a GFP2-fused to the C-terminus of human Gy1 (Gy1-GFP2), human GI31, and 5-HT2 receptor using TransiT-2020. After at least 18-24 hours, transfected cells were plated in poly-lysine coated 96-well white clear bottom cell culture plates in DMEM containing 1% dialyzed FBS at a density of 25,000-40,000 cells in 200 μL per well and incubated overnight. The following day, medium was decanted, and cells were washed with 60 μL of drug buffer (1×HBSS, 20 mM HEPES, pH 7.4), then 60 μL of drug buffer was added per well. Cells were pre-incubated at in a humidified atmosphere at 37° C. before receiving drug stimulation. […] Substrate addition occurred 15 minutes before reading and utilized 10 μL of the Rluc substrate coelenterazine 400a for Gq dissociation BRET^2 (Prolume/Nanolight, 5 μM final concentration). Plates were read for luminescence at 400 nm and fluorescent GFP2 emission at 510 nm at 1 second per well using a Mithras LB940 multimode microplate reader (e.g. one provided by Berthold). The BRET ratios of fluorescence/luminescence were calculated per well and were plotted as a function of drug concentration using Graphpad Prism 8 (Graphpad Software Inc., San Diego, CA). Data were normalized to % 5-HT stimulation and analyzed using nonlinear regression “log(agonist) vs. response” to yield Emax and EC50 parameter estimates. […]

5-HT2C receptor = target: T2, 5-HT2C receptor (Homo sapiens, UniProt P28335); assay: Gq activation via Gq/γ1 dissociation BRET, 5-HT2C; format: cell-based; conditions: primary signaling for 5-HT2C via Gq-coupled mechanism compared to B-arrestin
T2 construct: expressed in transfected cells; host or cells: HEK293T
T2 sequence (P28335 33-458): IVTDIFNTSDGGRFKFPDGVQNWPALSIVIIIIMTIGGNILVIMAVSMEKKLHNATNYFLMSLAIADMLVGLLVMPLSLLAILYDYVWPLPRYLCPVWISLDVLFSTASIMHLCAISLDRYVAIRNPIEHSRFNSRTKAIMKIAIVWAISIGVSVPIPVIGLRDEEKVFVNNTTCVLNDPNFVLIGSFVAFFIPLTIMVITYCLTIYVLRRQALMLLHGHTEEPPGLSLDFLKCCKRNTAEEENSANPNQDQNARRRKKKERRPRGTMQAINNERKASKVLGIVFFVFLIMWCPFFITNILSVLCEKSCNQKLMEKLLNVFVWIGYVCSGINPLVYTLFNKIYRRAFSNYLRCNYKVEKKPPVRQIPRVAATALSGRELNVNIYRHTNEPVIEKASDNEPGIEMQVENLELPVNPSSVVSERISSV
From the text: as §1

T1 sequence (P28223 whole entry): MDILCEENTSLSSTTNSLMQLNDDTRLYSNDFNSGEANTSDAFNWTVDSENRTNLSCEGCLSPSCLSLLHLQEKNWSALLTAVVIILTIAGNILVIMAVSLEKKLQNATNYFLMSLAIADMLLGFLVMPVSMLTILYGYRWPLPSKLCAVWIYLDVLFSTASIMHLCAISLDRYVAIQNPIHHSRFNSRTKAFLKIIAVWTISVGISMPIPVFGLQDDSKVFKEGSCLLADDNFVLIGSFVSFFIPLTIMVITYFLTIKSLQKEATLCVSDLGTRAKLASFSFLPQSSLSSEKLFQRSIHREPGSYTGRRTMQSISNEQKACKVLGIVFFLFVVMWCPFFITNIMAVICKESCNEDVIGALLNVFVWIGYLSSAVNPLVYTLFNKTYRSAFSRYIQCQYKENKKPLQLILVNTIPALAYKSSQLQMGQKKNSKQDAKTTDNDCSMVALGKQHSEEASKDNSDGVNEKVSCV

In the case of CNCC1CC1c1cc(F)ccc1SC (stereo not drawn), the “Hall or N-Hall?” value (5-HT2A receptor) is reported as “N-Hall” and the “5-HT2C Gq signaling bias?” value (5-HT2C receptor) is reported as “Yes”.
In the case of CSc1ccc(F)cc1C1CC1CN(C)C (stereo not drawn), the “Hall or N-Hall?” value (5-HT2A receptor) is reported as “N-Hall” and the “5-HT2C Gq signaling bias?” value (5-HT2C receptor) is reported as “Yes”.
In the case of CNC[C@H]1C[C@@H]1c1cc(F)ccc1OC, the “Hall or N-Hall?” value (5-HT2A receptor) is reported as “N-Hall” and the “5-HT2C Gq signaling bias?” value (5-HT2C receptor) is reported as “Yes”.
